Measurements reported in patent EP0306904A2, “Phosphoric acid diesters and salts thereof” (Senju Pharmaceutical Co., Ltd., priority 1987, dated 1989).

Experiments:
[1] = tested on: mixture micelles, which were prepared from phospholipid (egg lecithin) and ethanol; test: Anti-oxidative activity: oxidation of mixture micelles (egg lecithin and ethanol) by ferrous-ion/ascorbic acid, thiobarbituric acid readout; format: biochemical; details: for Rate of inhibition (%): 25 °C, 15 min, ferrous sulfate/sodium ascorbate; for inhibition of oxidation: summary in words of the micelle oxidation results
Procedure: Anti-oxidative activity of the compounds prepared in example 1 and example 4 were determined using, as an index, oxidation of mixture micelles, which were prepared from phospholipid (egg lecithin) and ethanol, by ferrous-ion/ascorbic acid
To a solution of approx. 78 mg of egg lecithin in 2 ml of ethanol was added gradually 5 mM HEPES buffer solution (pH 7.2), under sonication (50 W) and ice-cooling, to make a 100-ml suspension. To 1,000 µ l of the suspension were added 200 µ l of 2.6 x 10⁻⁴ M solution of one of the test compounds in 50 v/v % ethanol, 50 µ l of 5.0 x 10⁻⁵ M sodium ascorbate solution in water and 50 µ l of 2.5 x 10⁻⁶ M ferrous sulfate solution in water. The mixture was placed in a water bath at 25 °C for 15 min for oxidation. Instantly after the reaction, 50 µ l of 0.1 % hydroquinone solution in ethanol was added to stop the reaction. To the mixture were added 200 µ l of 20 w/v % trichloroacetic acid and 2,000 µ l of 50 v/v % acetic acid containing thiobarbituric acid (Merck) at the concentration of 0.35 %, followed by heating for 15 min under reflux at 100 °C. After cooling, absorp tion within the range of 450-600 nm was measured by spectrophotography, within which range increase in absorbance at approx. 530-540 nm was determined. […]

lens = test: Anti-oxidative activity in a model employing UV-induced oxidation of the lens
[2] = Final concentration 4.0 x 10⁻⁵ (unit not given; M)
[3] = Final concentration 4.0 x 10⁻⁶ (unit not given; M)

Cc1c(C)c2c(c(C)c1OP(=O)([O-])OC1=C(O)[C@@H]([C@@H](O)CO)OC1=O)CCC(C)(CCCC(C)CCCC(C)C)O2.[K+] (stereo partly drawn) [Example 1, potassium salt of phosphoric acid (L-ascorbic acid-2-0)(2,5,7,8-tetramethyl-2-(4,8-dimethylnonyl)chromanyl-6) ester]
Rate of inhibition (%) [1, 2]: 94.44%
Rate of inhibition (%) [1, 3]: 89.57%
inhibition of oxidation [1]: nearly complete inhibition of oxidation
inhibition of accumulation of malonedialdehyde (lens): significant inhibition

Cc1c(C)c2c(c(C)c1OP(=O)([O-])OC1=C(O)[C@@H]([C@@H](O)CO)OC1=O)CCC(C)(CCCC(C)CCCC(C)CCCC(C)CCCC(C)C)O2.[K+] (stereo partly drawn) [Example 4, potassium salt of phosphoric acid (L-ascorbic acid-2-0)(2,5,7,8-tetramethyl-2-(4,8,12,16-tetramethylheptadecyl)chromanyl-6) ester]
Rate of inhibition (%) [1, 2]: 99.90%
Rate of inhibition (%) [1, 3]: 95.22%
inhibition of oxidation [1]: nearly complete inhibition of oxidation
inhibition of accumulation of malonedialdehyde (lens): significant inhibition
